Laboratory results as given in patent US20110250135A1, “Piperazine Derivatives for Binding and Imaging Amyloid Plaques and Their Use” (Bayer Schering Pharma Aktiengesellschaft, priority 2008, published 2011).

What was measured:
[1] = Biodistribution: organ distribution of F-18 signal in mice; type: in vivo, male NMRI mice; settings: for Organ distribution of F-18 signal, intestine: intestine (with content); for Organ distribution of F-18 signal, stomach: stomach (without content)
In short: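 Male NMRI mice (~30 g, 3 per time point) received ca. 150 kBq of the test compound i.v. via tail vein. At 2, 5, 30, 60 and 240 min, urine and feces were collected and organs and tissues taken for gamma counting. Values are decay-corrected % ID/g ± SD.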

Aβ plaques = target: T1, Aβ plaques (Homo sapiens, UniProt P05067); test: Autoradiographical analysis of binding to cryosections from cortex of AD patients and controls; settings: F-18 labeled compound; Alzheimer's disease patients (AD) vs controls without Aβ plaques
T1 construct: controls without Aβ plaques; from tissue; host or cells: frontal lobe / cortex sections (frozen and paraffin) from AD patients, FTD patients and age-matched controls
In short: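 Frozen (18 μm) and deparaffinized paraffin (6 μm) frontal-lobe sections from Alzheimer's, frontotemporal dementia and age-matched control brains were incubated 1.5 h at room temperature with F-18 test compound at 10 Bq/μl in 25 mM Hepes pH 7.4, 0.1% BSA. Blocking used 1000-fold excess unlabeled compound; phosphoimager readout.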

T1 sequence (P05067 672-713 limits assumed): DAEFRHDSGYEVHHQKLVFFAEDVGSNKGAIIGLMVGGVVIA

O=C(NCC(=O)N1CCN(c2ccc(OCc3ccccc3)cn2)CC1)c1ccnc([18F])c1 [Example 14f, [^18F]-N-(2-{4-[5-(benzyloxy)pyridin-2-yl]piperazin-1-yl}-2-oxoethyl)-2-fluoropyridine-4carboxamide]
Organ distribution of F-18 signal, adrenals ([1]; 2 min post i.v. injection): 16.31 % ID/g | Organ distribution of F-18 signal, adrenals ([1]; 5 min post i.v. injection): 6.14 % ID/g | Organ distribution of F-18 signal, adrenals ([1]; 30 min post i.v. injection): 1.57 % ID/g | Organ distribution of F-18 signal, adrenals ([1]; 60 min post i.v. injection): 1.35 % ID/g | Organ distribution of F-18 signal, adrenals ([1]; 240 min post i.v. injection): 0.23 % ID/g | Organ distribution of F-18 signal, blood ([1]; 2 min post i.v. injection): 2.05 % ID/g | Organ distribution of F-18 signal, blood ([1]; 5 min post i.v. injection): 2.36 % ID/g | Organ distribution of F-18 signal, blood ([1]; 30 min post i.v. injection): 1.30 % ID/g | Organ distribution of F-18 signal, blood ([1]; 60 min post i.v. injection): 0.33 % ID/g | Organ distribution of F-18 signal, blood ([1]; 240 min post i.v. injection): 0.08 % ID/g | Organ distribution of F-18 signal, brain ([1]; 2 min post i.v. injection): 3.87 % ID/g | Organ distribution of F-18 signal, brain ([1]; 5 min post i.v. injection): 3.14 % ID/g | Organ distribution of F-18 signal, brain ([1]; 30 min post i.v. injection): 0.52 % ID/g | Organ distribution of F-18 signal, brain ([1]; 60 min post i.v. injection): 0.13 % ID/g | Organ distribution of F-18 signal, brain ([1]; 240 min post i.v. injection): 0.02 % ID/g | Organ distribution of F-18 signal, fat ([1]; 2 min post i.v. injection): 1.05 % ID/g | Organ distribution of F-18 signal, fat ([1]; 5 min post i.v. injection): 2.17 % ID/g | Organ distribution of F-18 signal, fat ([1]; 30 min post i.v. injection): 1.02 % ID/g | Organ distribution of F-18 signal, fat ([1]; 60 min post i.v. injection): 0.59 % ID/g | Organ distribution of F-18 signal, fat ([1]; 240 min post i.v. injection): 0.02 % ID/g | Organ distribution of F-18 signal, femur ([1]; 2 min post i.v. injection): 1.44 % ID/g | Organ distribution of F-18 signal, femur ([1]; 5 min post i.v. injection): 1.38 % ID/g | Organ distribution of F-18 signal, femur ([1]; 30 min post i.v. injection): 0.55 % ID/g | Organ distribution of F-18 signal, femur ([1]; 60 min post i.v. injection): 0.24 % ID/g | Organ distribution of F-18 signal, femur ([1]; 240 min post i.v. injection): 0.13 % ID/g | Organ distribution of F-18 signal, heart ([1]; 2 min post i.v. injection): 3.67 % ID/g | Organ distribution of F-18 signal, heart ([1]; 5 min post i.v. injection): 3.81 % ID/g | Organ distribution of F-18 signal, heart ([1]; 30 min post i.v. injection): 0.93 % ID/g | Organ distribution of F-18 signal, heart ([1]; 60 min post i.v. injection): 0.20 % ID/g | Organ distribution of F-18 signal, heart ([1]; 240 min post i.v. injection): 0.06 % ID/g | Organ distribution of F-18 signal, intestine ([1]; 2 min post i.v. injection): 2.27 % ID/g | Organ distribution of F-18 signal, intestine ([1]; 5 min post i.v. injection): 2.90 % ID/g | Organ distribution of F-18 signal, intestine ([1]; 30 min post i.v. injection): 11.37 % ID/g | Organ distribution of F-18 signal, intestine ([1]; 60 min post i.v. injection): 13.11 % ID/g | Organ distribution of F-18 signal, intestine ([1]; 240 min post i.v. injection): 13.53 % ID/g | Organ distribution of F-18 signal, kidney ([1]; 2 min post i.v. injection): 7.60 % ID/g | Organ distribution of F-18 signal, kidney ([1]; 5 min post i.v. injection): 8.59 % ID/g | Organ distribution of F-18 signal, kidney ([1]; 30 min post i.v. injection): 7.84 % ID/g | Organ distribution of F-18 signal, kidney ([1]; 60 min post i.v. injection): 2.86 % ID/g | Organ distribution of F-18 signal, kidney ([1]; 240 min post i.v. injection): 0.79 % ID/g | Organ distribution of F-18 signal, liver ([1]; 2 min post i.v. injection): 8.19 % ID/g | Organ distribution of F-18 signal, liver ([1]; 5 min post i.v. injection): 13.46 % ID/g | Organ distribution of F-18 signal, liver ([1]; 30 min post i.v. injection): 5.20 % ID/g | Organ distribution of F-18 signal, liver ([1]; 60 min post i.v. injection): 1.87 % ID/g | Organ distribution of F-18 signal, liver ([1]; 240 min post i.v. injection): 0.90 % ID/g | Organ distribution of F-18 signal, lung ([1]; 2 min post i.v. injection): 3.63 % ID/g | Organ distribution of F-18 signal, lung ([1]; 5 min post i.v. injection): 3.93 % ID/g | Organ distribution of F-18 signal, lung ([1]; 30 min post i.v. injection): 1.27 % ID/g | Organ distribution of F-18 signal, lung ([1]; 60 min post i.v. injection): 0.42 % ID/g | Organ distribution of F-18 signal, lung ([1]; 240 min post i.v. injection): 0.12 % ID/g | Organ distribution of F-18 signal, muscle ([1]; 2 min post i.v. injection): 1.94 % ID/g | Organ distribution of F-18 signal, muscle ([1]; 5 min post i.v. injection): 2.14 % ID/g | Organ distribution of F-18 signal, muscle ([1]; 30 min post i.v. injection): 0.62 % ID/g | Organ distribution of F-18 signal, muscle ([1]; 60 min post i.v. injection): 0.26 % ID/g | Organ distribution of F-18 signal, muscle ([1]; 240 min post i.v. injection): 0.03 % ID/g | Organ distribution of F-18 signal, pancreas ([1]; 2 min post i.v. injection): 4.49 % ID/g | Organ distribution of F-18 signal, pancreas ([1]; 5 min post i.v. injection): 4.49 % ID/g | Organ distribution of F-18 signal, pancreas ([1]; 30 min post i.v. injection): 1.64 % ID/g | Organ distribution of F-18 signal, pancreas ([1]; 60 min post i.v. injection): 0.32 % ID/g | Organ distribution of F-18 signal, pancreas ([1]; 240 min post i.v. injection): 0.11 % ID/g | Organ distribution of F-18 signal, skin ([1]; 2 min post i.v. injection): 1.12 % ID/g | Organ distribution of F-18 signal, skin ([1]; 5 min post i.v. injection): 1.84 % ID/g | Organ distribution of F-18 signal, skin ([1]; 30 min post i.v. injection): 1.17 % ID/g | Organ distribution of F-18 signal, skin ([1]; 60 min post i.v. injection): 0.43 % ID/g | Organ distribution of F-18 signal, skin ([1]; 240 min post i.v. injection): 0.06 % ID/g | Organ distribution of F-18 signal, spleen ([1]; 2 min post i.v. injection): 1.67 % ID/g | Organ distribution of F-18 signal, spleen ([1]; 5 min post i.v. injection): 2.25 % ID/g | Organ distribution of F-18 signal, spleen ([1]; 30 min post i.v. injection): 0.78 % ID/g | Organ distribution of F-18 signal, spleen ([1]; 60 min post i.v. injection): 0.12 % ID/g | Organ distribution of F-18 signal, spleen ([1]; 240 min post i.v. injection): 0.04 % ID/g | Organ distribution of F-18 signal, stomach ([1]; 2 min post i.v. injection): 3.81 % ID/g | Organ distribution of F-18 signal, stomach ([1]; 5 min post i.v. injection): 3.68 % ID/g | Organ distribution of F-18 signal, stomach ([1]; 30 min post i.v. injection): 2.88 % ID/g | Organ distribution of F-18 signal, stomach ([1]; 60 min post i.v. injection): 2.07 % ID/g | Organ distribution of F-18 signal, stomach ([1]; 240 min post i.v. injection): 0.46 % ID/g | Organ distribution of F-18 signal, tail ([1]; 2 min post i.v. injection): 5.14 % ID/g | Organ distribution of F-18 signal, tail ([1]; 5 min post i.v. injection): 4.06 % ID/g | Organ distribution of F-18 signal, tail ([1]; 30 min post i.v. injection): 2.28 % ID/g | Organ distribution of F-18 signal, tail ([1]; 60 min post i.v. injection): 0.67 % ID/g | Organ distribution of F-18 signal, tail ([1]; 240 min post i.v. injection): 0.31 % ID/g | Organ distribution of F-18 signal, testicle ([1]; 2 min post i.v. injection): 1.42 % ID/g | Organ distribution of F-18 signal, testicle ([1]; 5 min post i.v. injection): 1.73 % ID/g | Organ distribution of F-18 signal, testicle ([1]; 30 min post i.v. injection): 0.79 % ID/g | Organ distribution of F-18 signal, testicle ([1]; 60 min post i.v. injection): 0.27 % ID/g | Organ distribution of F-18 signal, testicle ([1]; 240 min post i.v. injection): 0.04 % ID/g | Organ distribution of F-18 signal, thyroid ([1]; 2 min post i.v. injection): 3.00 % ID/g | Organ distribution of F-18 signal, thyroid ([1]; 5 min post i.v. injection): 2.94 % ID/g | Organ distribution of F-18 signal, thyroid ([1]; 30 min post i.v. injection): 0.94 % ID/g | Organ distribution of F-18 signal, thyroid ([1]; 60 min post i.v. injection): 0.30 % ID/g | Organ distribution of F-18 signal, thyroid ([1]; 240 min post i.v. injection): 0.16 % ID/g | autoradiographical analysis of binding to cryosections from cortex (Aβ plaques): Specific binding in plaque-rich regions of AD samples
